Test [1] concerns sarcosine oxidase. The test can be described thus: Stirred vessel system, initial gradient of oxygen or hydrogen peroxide signal. Format: biochemical. The conditions noted are these: for effect of substrate concentration on inhibition of the sarcosine oxidase, FIG. 16: 0.1 g/l sarcosine compared to 1.0 g/l sarcosine. From the text: In contrast to the FIA system the stirred vessel system is a discontinuous process. In order to perform a measurement all necessary reaction partners are brought into the reaction chamber of the stirred vessel system and the course of reaction is been monitored by the appropriate detectors during a fixed time period. Afterwards the whole reaction mixture is removed. Then a new measurement can be done.
The reaction mixture of the stirred vessel system in FIG. 11 consists of the sample, substrate, buffer solution and enzyme. Here, the sample and the enzyme are added one after another and the sample itself containing the analyte, acetic acid for instance, in different concentrations. […] The result of the measurement is calculated from the initial gradient of the signal.
During the calibration via the initial gradient samples of different analyte concentration are added and the relating initial inclines are drawn into the chart in dependence of the analyte concentration (see FIGS. 12, 13 and 14). The sample containing the unknown analyte concentration is added to the reaction mixture in the same manner and is determined by using the initial incline which is compared to the calibration curve.

For test [2], the system named is sarcosine oxidase. The settings on record: for inhibition of the sarcosine oxidase activity, FIG. 10: sarcosine oxidase 100 U. From the text:
In FIA systems an injected volume of the sample is transported to the detector by a continuous moving, not segmented carrier or transport flow via a mixing and reaction line. Meanwhile, the injected sample zone is broadened (dispersion) and reacts with the ingredients of the carrier flow. As a result of the chemical conversion, the changes in concentration of the participating components lead to a change of signal at the detector, which is characteristic for the concentration of the determined substance of the injected sample. In FIG. 1 the analyte (acetic acid) as well as the substrate (sarcosine) are injected as a sample into the carrier flow consisting of the working buffer. The mixing and reacting line contains the immobilized enzyme sarcosine oxidase, which reacts with the analyte and the substrate of the sample. The decrease of oxygen or the production of hydrogene peroxide is measured by means of an oxygen or hydrogene peroxide electrode. A typical measuring signal is reproduced in FIG. 2. The peak high H or surface S is proportional to the concentration of the sample. When calibrating via the peak heights, samples of different analyte concentrations are injected and the resulting peak heights in dependence of their analyte concentrations are drawn into a chart (FIG. 3). The sample of unknown analyte concentration is injected in the same manner and can be determined via the peak height with the help of the calibration curve. In FIG. 4 the substrate is added to the buffer solution and calibration is done by injecting the analyte. Again the analysis of the unknown sample can be be done by using the calibration curve as described in FIG. 5.

Consider three molecules from US20020098509A1, “Method for the quantitative determination of reversible acting inhibitors of the oxidoreductases” (priority 1995, published 2002).

Like-named read-outs stand apart in the source and are kept apart here.

On to `CC=O` [acetaldehyde], for which the “effect of substrate concentration on inhibition of the sarcosine oxidase, FIG. 16” value with sarcosine oxidase [1] was “only slightly influenced”. In addition, the “amount of inhibition of the sarcosine oxidase (relative initial incline versus analyte concentration), FIG. 15” value in the test on sarcosine oxidase [1] (comparison of analytes, acetate and propionate as reference curves) was “lower”.
On to `CC(=O)O` [acetate], for which the “inhibition of the sarcosine oxidase activity, FIG. 10” value in the test with sarcosine oxidase [2] (0.25 g/l respectively 0.5 g/l sarcosine) was “a considerable amount of inhibition”; with sarcosine oxidase [2] (1 g/l or 2 g/l sarcosine), “only a small amount of inhibition”. Also, the “inhibitor strength (inhibition of the measuring system), FIG. 7” value in the test on sarcosine oxidase [2] (substances arising in biotechnological media, maximum concentration 0.1 mol/l) is “quite strong”. For the same molecule, in the test on sarcosine oxidase [1], the “effect of substrate concentration on inhibition of the sarcosine oxidase, FIG. 16” value is recorded as “substantial higher inhibition”.
Take `CCC(=O)O` [propionate]: the “effect of substrate concentration on inhibition of the sarcosine oxidase, FIG. 16” value with sarcosine oxidase [1] is recorded as “substantial higher inhibition”.
